For six compounds, EC50 and CC50 results are on record in ChEMBL document CHEMBL1155927, “Synthesis and evaluation of 5'-modified 2'-deoxyadenosine analogues as anti-hepatitis C virus agents” (Bioorg Med Chem Lett, 2008).

In data set [1] the test system is Hepatitis C virus. Nature of the data set: Antiviral activity against HCV assessed as inhibition of viral RNA replication in Huh7 cells. The format is functional, organism-based, Hepacivirus hominis. The conditions noted are these: Huh-7.
Data set [2] can be described thus: Cytotoxicity in human Huh7 cells by XTT assay. The format is cell-based, Huh-7.

Some results are limits rather than exact numbers.

`COC(=O)CC[C@H]1O[C@@H](n2cnc3c(N)ncnc32)C[C@@H]1O`: the EC50 in data set [1] was above 200 µM.

`CON(C)C(=O)CC[C@H]1O[C@@H](n2cnc3c(N)ncnc32)C[C@@H]1O`: in data set [1], the EC50 is above 200 µM.

Take `O=C(CC[C@H]1O[C@@H](n2cnc3c(Cl)ncnc32)C[C@@H]1O)c1ccccc1`: the concentration giving a half-maximal response (EC50) in data set [1] is 15.1 µM. The compound further yielded a 50% cytotoxic concentration (CC50) in data set [2] of 76.3 µM.

With `Nc1ncnc2c1ncn2[C@H]1C[C@H](O)[C@@H](CCC(=O)c2ccccc2)O1`, the EC50 in data set [1] was above 200 µM.

Regarding `CON(C)C(=O)CC[C@H]1O[C@@H](n2cnc3c(Cl)ncnc32)C[C@@H]1O`, the EC50 in data set [1] was 40.4 µM. In data set [2], this compound registered a CC50 above 200 µM.

Consider `COC(=O)CC[C@H]1O[C@@H](n2cnc3c(Cl)ncnc32)C[C@@H]1O`, for which the EC50 in data set [1] was found to be 32.9 µM. Further, in data set [2], the CC50 was above 200 µM.

The EC50 is the concentration that produces a half-maximal response. Broadly, the CC50 is the concentration at which the toxic effect on the cells reaches its halfway point.
